From ChEMBL document CHEMBL1130571, “Synthesis and evaluation of novel-N-[2-(bis-aryl-methoxy)ethyl-N-aralkyl-,-alkanediamines as potent and selective dopamine reuptake inhibitors: Seco analogs of GBR12935 and GBR12909” (Bioorg Med Chem Lett, 1997)
Where a name gives a salt, the structure may show the parent alone.

How the values were obtained:
[1] = molecular target: Sodium-dependent dopamine transporter (Rattus norvegicus, UniProt P23977); assay: Compound was tested for its ability to inhibit the neurotransmitter dopamine-DA reuptake system using [3H]dopamine as radioligand
[2] = molecular target: Sodium-dependent serotonin transporter (Rattus norvegicus, UniProt P31652); assay: Compound was tested for its ability to inhibit the neurotransmitter serotonin-5-HT reuptake system using [3H]5-HT as radioligand
[3] = molecular target: Norepinephrine transporter (Rattus norvegicus, UniProt Q9WTR4); assay: Norepinephrine transporter activity was determined by the ability of compound to inhibit the neurotransmitter norepinephrine-NE reuptake system using [3H]norepinephrine as radioligand
[4] = Selectivity of compound towards DA transporter to that of NE transporter

Sequence of Sodium-dependent serotonin transporter (P31652 whole entry): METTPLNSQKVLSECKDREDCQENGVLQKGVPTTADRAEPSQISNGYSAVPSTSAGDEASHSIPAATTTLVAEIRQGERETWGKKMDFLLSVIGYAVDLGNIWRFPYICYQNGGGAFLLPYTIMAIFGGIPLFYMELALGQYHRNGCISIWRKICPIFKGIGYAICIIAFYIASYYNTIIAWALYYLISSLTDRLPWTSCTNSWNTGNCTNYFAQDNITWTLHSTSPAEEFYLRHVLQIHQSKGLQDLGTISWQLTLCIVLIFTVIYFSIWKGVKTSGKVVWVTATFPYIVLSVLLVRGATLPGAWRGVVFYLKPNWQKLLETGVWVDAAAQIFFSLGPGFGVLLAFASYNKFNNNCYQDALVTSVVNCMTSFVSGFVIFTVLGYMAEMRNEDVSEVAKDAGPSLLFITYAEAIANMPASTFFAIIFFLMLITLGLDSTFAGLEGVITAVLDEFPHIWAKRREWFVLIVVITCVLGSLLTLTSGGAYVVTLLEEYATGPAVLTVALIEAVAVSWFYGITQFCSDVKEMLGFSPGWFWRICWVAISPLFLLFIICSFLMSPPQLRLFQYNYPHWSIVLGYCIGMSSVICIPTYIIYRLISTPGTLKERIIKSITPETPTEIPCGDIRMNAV
Sequence of Sodium-dependent dopamine transporter (P23977 whole entry): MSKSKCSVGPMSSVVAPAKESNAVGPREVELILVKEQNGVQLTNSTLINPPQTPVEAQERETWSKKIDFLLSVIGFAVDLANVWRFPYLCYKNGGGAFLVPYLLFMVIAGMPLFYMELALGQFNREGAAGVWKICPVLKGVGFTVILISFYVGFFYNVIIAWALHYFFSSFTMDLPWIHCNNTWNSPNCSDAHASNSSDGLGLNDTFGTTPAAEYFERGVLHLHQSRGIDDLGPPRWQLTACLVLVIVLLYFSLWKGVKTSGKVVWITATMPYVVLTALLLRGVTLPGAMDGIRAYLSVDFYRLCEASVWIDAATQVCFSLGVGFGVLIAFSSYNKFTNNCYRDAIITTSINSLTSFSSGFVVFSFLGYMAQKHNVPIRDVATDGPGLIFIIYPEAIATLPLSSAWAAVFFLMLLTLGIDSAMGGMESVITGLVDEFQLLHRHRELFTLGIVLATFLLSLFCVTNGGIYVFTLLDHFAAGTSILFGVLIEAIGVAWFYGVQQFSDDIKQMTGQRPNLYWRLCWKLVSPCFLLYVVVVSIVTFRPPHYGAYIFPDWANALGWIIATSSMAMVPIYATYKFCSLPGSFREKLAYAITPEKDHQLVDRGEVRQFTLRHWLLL
Sequence of Norepinephrine transporter (Q9WTR4 whole entry): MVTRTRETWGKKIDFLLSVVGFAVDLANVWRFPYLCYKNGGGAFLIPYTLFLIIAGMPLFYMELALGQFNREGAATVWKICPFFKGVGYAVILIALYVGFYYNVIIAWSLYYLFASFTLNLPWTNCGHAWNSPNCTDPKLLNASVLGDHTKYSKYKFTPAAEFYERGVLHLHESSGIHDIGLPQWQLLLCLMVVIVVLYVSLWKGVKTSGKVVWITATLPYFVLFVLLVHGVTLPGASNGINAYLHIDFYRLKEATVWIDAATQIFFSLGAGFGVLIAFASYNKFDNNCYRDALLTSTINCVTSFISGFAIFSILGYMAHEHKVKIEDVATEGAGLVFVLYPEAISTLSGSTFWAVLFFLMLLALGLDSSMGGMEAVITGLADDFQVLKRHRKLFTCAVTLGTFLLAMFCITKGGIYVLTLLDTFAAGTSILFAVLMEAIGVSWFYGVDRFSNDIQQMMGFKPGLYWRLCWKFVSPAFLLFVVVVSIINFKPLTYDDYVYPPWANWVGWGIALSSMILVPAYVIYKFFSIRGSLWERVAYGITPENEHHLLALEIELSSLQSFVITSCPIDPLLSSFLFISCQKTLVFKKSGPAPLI

## c1ccc(CCCNCCCNCCOC(c2ccccc2)c2ccccc2)cc1
[1]
  IC50: 150 nM
[2]
  IC50: > 10000 nM
[3]
  IC50: > 10000 nM
[4]
  Selectivity: > 65

## CC(NC(C)(C)C)C(=O)c1cccc(Cl)c1 (stereo not given) [BUPROPION HYDROCHLORIDE]
[1]
  IC50: 1230 nM

## I/C=C\CN1CCN(CCOC(c2ccccc2)c2ccccc2)CC1
[1]
  IC50: 780 nM
[2]
  IC50: > 10000 nM
[3]
  IC50: 2190 nM
[4]
  Selectivity: 3

## CN(CCCc1ccccc1)CCN(C)CCOC(c1ccc(F)cc1)c1ccc(F)cc1
[1]
  IC50: 10 nM
[2]
  IC50: 1500 nM
[3]
  IC50: > 10000 nM
[4]
  Selectivity: > 1000

## I/C=C/CN1CCN(CCOC(c2ccccc2)c2ccccc2)CC1
[1]
  IC50: 505 nM
[2]
  IC50: > 10000 nM
[3]
  IC50: > 10000 nM
[4]
  Selectivity: > 20

## c1ccc(CCCNCCNCCOC(c2ccccc2)c2ccccc2)cc1
[1]
  IC50: 1230 nM
[2]
  IC50: > 10000 nM
[3]
  IC50: > 10000 nM
[4]
  Selectivity: > 8

## Fc1ccc(C(OCCNCCNCCCc2ccccc2)c2ccc(F)cc2)cc1
[1]
  IC50: 49 nM
[2]
  IC50: 500 nM
[3]
  IC50: > 10000 nM
[4]
  Selectivity: > 200
